Data on 1 substance can be found in US8637484B2, “Modulation of growth hormone receptor expression and insulin-like growth factor expression” (Antisense Therapeutic Limited, priority 2003, dated 2014).

As usually defined, the pIC50 is the IC50 on a negative log10 scale, so that one unit is a factor of ten.

In series [1] the test system is mouse growth hormone receptor mRNA. Kind of series: Inhibition of mouse growth hormone receptor mRNA levels in b.END cells, quantitative real-time PCR. Type of series: cell-based. The settings on record: dose-response studies.
The test system of another series is growth hormone receptor. Kind of series: [125I] hGH specific binding assay on liver microsomal membranes of treated mice. It is filed as in vivo, mouse. The method, then:
Specific binding assays were carried out with liver tissue using iodinated human growth hormone [^125I] hGH.
Microsomal membrane preparations were obtained as follows. 400 mg of tissue powder was homogenized in cold homogenizing buffer (50 mM Tris/HCl, 250 mM sucrose, pH 7.4). This was centrifuged at 2000 rpm for 10 min at 3° C. and the supernatant was saved. This was centrifuged again at 15,000 rpm for 20 min. Pellets were resuspended in 0.5 ml of RRA buffer with inhibitor (50 mM Tris, 20 mM MgC12, pH 7.4). Microsomal preparation samples were stored at −80° C. until the specific binding assay.
The [^125I] hGH specific binding assay was done as follows. Four glass tubes were set up for each sample, two for (−), two for (+). Different sample and solutions were added in each tube as follows (i) 0.2 ml RRA buffer (50 mM Tris, 20 mM MgCl2, 0.1% BSA, pH 7.4); (ii) 0.1 ml membrane (1/2 or 1/4 dilution); (iii) 0.1 ml bGH (10 μg/ml) for the (+) tube or 0.1 ml RRA buffer for the (−) tube; and (iv) 0.1 ml [^125I]-hGH tracer.
Samples were incubated at 4° C. with shaking overnight. The reaction was stopped with 2.5 ml of cold RRA, and the sample centrifuged at 2800 rpm for 25 min at 4° C. Supernatant was aspirated and pellets counted using the γ-counter. The specific binding capacity was calculated as: CPM(−)-CPM(+) Protein content of the microsomal samples was determined by the BCA protein assay.
In general terms: Liver microsomes are a subcellular fraction often used to study metabolism.

The mark [2] stands for this setting: 30 mg/kg every second day for one week, liver membranes.

pIC50: −log10 of the molar value. In the oligonucleotide strings, read from the 5' end, every base follows the letter of its sugar. An asterisk marks phosphorothioate; unmarked linkages are phosphodiester. Other units and linkages are bracketed, terminal groups are in braces. A string of capitals states the bases alone. e = 2'-O-(2-methoxyethyl) (MOE); [5mC] = 5-methylcytosine; d = 2'-deoxy (DNA)

Turning to “acaaagatccatacctgaga (eA*e[5mC]*eA*eA*eA*dG*dA*dT*d[5mC]*d[5mC]*dA*dT*dA*d[5mC]*d[5mC]*eT*eG*eA*eG*eA; antisense) [ISIS 227446]”, the pIC50 in series [1] was roughly 7.60. In the series with growth hormone receptor (30 mg/kg), the “reduction of specific binding compared to saline, ¼ dilution” value is reported as 39% and the “reduction of specific binding compared to saline, ½ dilution” value is reported as 26%. Moreover, in the series on growth hormone receptor (setting [2]), the “Specific binding/mg protein (cpm) ¼ dilution” value is 5546 ± 789 cpm and the “Specific binding/mg protein (cpm) ½ dilution” value is given as 4205 ± 534 cpm. Moreover, in the series with growth hormone receptor (30 mg/kg sc every second day for one week), the “growth hormone receptor levels (growth hormone binding activity), % of control (saline) group” value stood at 61%. The “growth hormone receptor levels, % of the control (mismatch) group” value with growth hormone receptor (30 mg/kg, ½ dilution experiment) was found to be 59%.
